Numbers after ± are expanded uncertainties.
Conditions: Liquid, Coaxial cylinder method

O [water]
thermal conductivity [W/m/K]
Conditions	290.6 K	329.7 K	367.1 K	395.1 K	440.7 K	484.2 K	514.2 K	549.8 K	575.4 K
1000 kPa	0.592 ± 0.017	0.649 ± 0.018	0.679 ± 0.019	0.683 ± 0.019	–	–	–	–	–
10000 kPa	0.602 ± 0.017	0.655 ± 0.018	0.684 ± 0.019	0.692 ± 0.019	0.683 ± 0.019	0.66 ± 0.019	0.638 ± 0.018	0.587 ± 0.017	0.54 ± 0.015
40000 kPa	0.613 ± 0.017	0.665 ± 0.019	0.697 ± 0.02	0.709 ± 0.02	0.703 ± 0.02	0.684 ± 0.019	0.662 ± 0.019	0.628 ± 0.018	0.594 ± 0.017
